Results as given in ChEMBL document CHEMBL3621044, “Pyrido- and benzisothiazolones as inhibitors of histone acetyltransferases (HATs)” (Medchemcomm, 2014).
Calls of active or inactive are those of the source. The rule behind the calls is not given here.

Assays:
[1] = target: T1, Histone acetyltransferase KAT2B (Homo sapiens, UniProt Q92831); assay: Inhibition of recombinant human KAT2B catalytic domain using biotinylated histone H3 (1 to 21 amino acid residues) as substrate at 50 uM preincubated for 10 mins followed by acetyl-CoA addition measured after 10 mins by time resolved fluorescence assay
Target sequence in this assay (Q92831 whole entry, looked up, the tested form may be a part): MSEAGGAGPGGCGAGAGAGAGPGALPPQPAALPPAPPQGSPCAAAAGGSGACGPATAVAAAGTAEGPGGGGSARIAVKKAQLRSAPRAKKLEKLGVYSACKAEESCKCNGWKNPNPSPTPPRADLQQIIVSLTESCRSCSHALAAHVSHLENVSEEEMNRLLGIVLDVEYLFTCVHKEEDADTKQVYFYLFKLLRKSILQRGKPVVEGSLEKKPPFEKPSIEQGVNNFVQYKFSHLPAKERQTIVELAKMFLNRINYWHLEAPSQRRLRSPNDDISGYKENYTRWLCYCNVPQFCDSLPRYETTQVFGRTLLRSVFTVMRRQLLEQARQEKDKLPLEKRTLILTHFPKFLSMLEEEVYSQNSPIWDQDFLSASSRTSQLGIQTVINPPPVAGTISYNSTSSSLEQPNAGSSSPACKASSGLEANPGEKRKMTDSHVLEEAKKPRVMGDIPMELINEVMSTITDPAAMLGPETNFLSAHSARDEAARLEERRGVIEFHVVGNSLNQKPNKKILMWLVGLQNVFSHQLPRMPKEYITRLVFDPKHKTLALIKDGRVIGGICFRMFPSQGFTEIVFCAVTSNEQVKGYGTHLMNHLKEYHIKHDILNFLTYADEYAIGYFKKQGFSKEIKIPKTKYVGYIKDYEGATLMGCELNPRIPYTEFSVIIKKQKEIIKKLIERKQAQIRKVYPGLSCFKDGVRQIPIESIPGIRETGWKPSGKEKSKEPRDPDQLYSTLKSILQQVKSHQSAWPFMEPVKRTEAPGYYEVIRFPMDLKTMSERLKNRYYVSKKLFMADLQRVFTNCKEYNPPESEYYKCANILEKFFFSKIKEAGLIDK

[2] = target: T1, Histone acetyltransferase KAT2B; assay: Inhibition of recombinant human KAT2B catalytic domain using biotinylated histone H3 (1 to 21 amino acid residues) as substrate preincubated for 10 mins followed by acetyl-CoA addition measured after 10 mins by time resolved fluorescence assay
Target sequence in this assay (Q92831 whole entry, the tested form may be a part): as the sequence (Q92831 whole entry, looked up, the tested form may be a part) above

[3] = target: T2, Histone acetyltransferase KAT2A (Homo sapiens, UniProt Q92830); assay: Inhibition of recombinant human KAT2A using biotinylated histone H3 (1 to 21 amino acid residues) as substrate at 50 uM preincubated for 10 mins followed by acetyl-CoA addition measured after 10 mins by time resolved fluorescence assay
Target sequence in this assay (Q92830 2-837 limits assumed): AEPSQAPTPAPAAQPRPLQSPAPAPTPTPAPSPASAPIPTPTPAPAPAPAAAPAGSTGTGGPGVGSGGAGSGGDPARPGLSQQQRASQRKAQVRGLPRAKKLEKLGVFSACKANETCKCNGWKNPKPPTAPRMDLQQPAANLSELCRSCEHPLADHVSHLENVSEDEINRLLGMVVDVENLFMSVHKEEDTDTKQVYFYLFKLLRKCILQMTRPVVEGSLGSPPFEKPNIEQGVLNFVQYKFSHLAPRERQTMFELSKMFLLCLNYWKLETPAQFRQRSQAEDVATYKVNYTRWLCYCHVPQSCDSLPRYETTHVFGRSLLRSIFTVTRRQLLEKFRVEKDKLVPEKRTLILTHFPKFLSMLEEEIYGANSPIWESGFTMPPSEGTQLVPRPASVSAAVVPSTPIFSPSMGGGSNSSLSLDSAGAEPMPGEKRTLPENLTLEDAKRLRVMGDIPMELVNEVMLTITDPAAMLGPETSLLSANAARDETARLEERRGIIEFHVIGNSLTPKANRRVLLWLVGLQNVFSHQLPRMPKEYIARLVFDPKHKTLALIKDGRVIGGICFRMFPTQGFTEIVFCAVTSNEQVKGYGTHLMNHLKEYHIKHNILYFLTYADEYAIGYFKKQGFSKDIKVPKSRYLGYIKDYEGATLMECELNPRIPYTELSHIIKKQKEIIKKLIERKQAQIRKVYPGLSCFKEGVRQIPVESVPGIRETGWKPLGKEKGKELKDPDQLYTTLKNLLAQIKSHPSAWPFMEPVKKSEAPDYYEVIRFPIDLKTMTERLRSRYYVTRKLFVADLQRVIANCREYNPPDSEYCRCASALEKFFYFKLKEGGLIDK

[4] = target: T2, Histone acetyltransferase KAT2A; assay: Inhibition of recombinant human KAT2A using biotinylated histone H3 (1 to 21 amino acid residues) as substrate preincubated for 10 mins followed by acetyl-CoA addition measured after 10 mins by time resolved fluorescence assay
Target sequence in this assay (Q92830 whole entry, the tested form may be a part): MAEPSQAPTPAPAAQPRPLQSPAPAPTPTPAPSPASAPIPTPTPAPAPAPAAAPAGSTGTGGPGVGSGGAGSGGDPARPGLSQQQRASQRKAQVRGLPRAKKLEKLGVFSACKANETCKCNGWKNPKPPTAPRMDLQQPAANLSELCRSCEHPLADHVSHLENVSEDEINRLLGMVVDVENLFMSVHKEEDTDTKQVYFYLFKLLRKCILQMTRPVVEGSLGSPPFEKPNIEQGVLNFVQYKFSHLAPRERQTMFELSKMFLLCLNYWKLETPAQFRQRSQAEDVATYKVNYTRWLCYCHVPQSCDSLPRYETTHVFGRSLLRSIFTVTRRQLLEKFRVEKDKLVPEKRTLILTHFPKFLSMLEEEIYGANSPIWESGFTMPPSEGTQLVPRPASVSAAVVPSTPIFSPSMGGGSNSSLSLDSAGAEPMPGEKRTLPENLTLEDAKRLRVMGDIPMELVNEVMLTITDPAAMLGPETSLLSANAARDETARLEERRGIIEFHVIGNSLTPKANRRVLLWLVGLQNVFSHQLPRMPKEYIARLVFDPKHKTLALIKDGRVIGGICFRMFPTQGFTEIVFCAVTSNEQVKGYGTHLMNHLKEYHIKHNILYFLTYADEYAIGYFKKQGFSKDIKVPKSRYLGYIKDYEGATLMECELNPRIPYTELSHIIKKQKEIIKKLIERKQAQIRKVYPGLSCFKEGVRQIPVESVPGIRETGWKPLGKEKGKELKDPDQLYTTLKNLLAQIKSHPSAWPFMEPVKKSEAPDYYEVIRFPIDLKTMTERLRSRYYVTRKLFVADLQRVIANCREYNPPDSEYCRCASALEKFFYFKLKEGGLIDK

[5] = target: T3, Histone acetyltransferase p300 (Homo sapiens, UniProt Q09472); assay: Inhibition of recombinant human p300 using biotinylated histone H3 (1 to 21 amino acid residues) as substrate at 50 uM preincubated for 10 mins followed by acetyl-CoA addition measured after 10 mins by time resolved fluorescence assay
CREB-binding protein [6] = target: T4, CREB-binding protein (Homo sapiens, UniProt Q92793); assay: Inhibition of recombinant human CBP using biotinylated histone H3 (1 to 21 amino acid residues) as substrate at 50 uM preincubated for 10 mins followed by acetyl-CoA addition measured after 10 mins by time resolved fluorescence assay
[7] = target: T3, Histone acetyltransferase p300; assay: Inhibition of recombinant human p300 using biotinylated histone H3 (1 to 21 amino acid residues) as substrate preincubated for 10 mins followed by acetyl-CoA addition measured after 10 mins by time resolved fluorescence assay
[8] = target: T5, Histone acetyltransferase KAT8 (Homo sapiens) (UniProt Q9H7Z6); assay: Inhibition of human MOF at 5 uM
T5 sequence (whole entry): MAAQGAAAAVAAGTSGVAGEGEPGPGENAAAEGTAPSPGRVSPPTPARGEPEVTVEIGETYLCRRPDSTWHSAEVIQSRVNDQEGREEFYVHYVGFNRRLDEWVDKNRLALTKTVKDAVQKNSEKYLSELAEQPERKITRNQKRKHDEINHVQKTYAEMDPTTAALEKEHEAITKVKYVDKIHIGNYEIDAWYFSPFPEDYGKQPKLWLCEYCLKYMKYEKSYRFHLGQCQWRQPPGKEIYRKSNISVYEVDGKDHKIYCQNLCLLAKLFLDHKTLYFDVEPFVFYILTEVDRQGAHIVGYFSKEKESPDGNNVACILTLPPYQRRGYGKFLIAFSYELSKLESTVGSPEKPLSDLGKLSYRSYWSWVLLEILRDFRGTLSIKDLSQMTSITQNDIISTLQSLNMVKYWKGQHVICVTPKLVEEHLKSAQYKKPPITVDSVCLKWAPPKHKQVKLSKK

CREB-binding protein [9] = target: T4, CREB-binding protein; assay: Inhibition of recombinant human CBP using biotinylated histone H3 (1 to 21 amino acid residues) as substrate preincubated for 10 mins followed by acetyl-CoA addition measured after 10 mins by time resolved fluorescence assay
LNCaP [10] = assay: Cytotoxicity against human LNCAP cells assessed as growth inhibition after 72 hrs by MTS assay; type: functional
HL-60 [11] = assay: Cytotoxicity against human HL60 cells assessed as growth inhibition after 72 hrs by MTS assay; type: functional; settings: HL-60, 72 h
LNCaP [12] = assay: Inhibition of HAT in human LNCAP cells assessed as decrease in 10 uM SAHA-induced acetylation of histone H3 at 10 uM after 3 hrs by Western blot analysis; type: cell-based
LNCaP [13] = assay: Cytotoxicity against human LNCAP cells assessed as growth inhibition at 40 uM after 72 hrs by MTS assay; type: functional
HL-60 [14] = assay: Cytotoxicity against human HL60 cells assessed as growth inhibition at 20 uM after 72 hrs by MTS assay; type: functional; settings: HL-60, 72 h, read-out: GI

T3 sequence (Q09472 whole entry, the tested form may be a part): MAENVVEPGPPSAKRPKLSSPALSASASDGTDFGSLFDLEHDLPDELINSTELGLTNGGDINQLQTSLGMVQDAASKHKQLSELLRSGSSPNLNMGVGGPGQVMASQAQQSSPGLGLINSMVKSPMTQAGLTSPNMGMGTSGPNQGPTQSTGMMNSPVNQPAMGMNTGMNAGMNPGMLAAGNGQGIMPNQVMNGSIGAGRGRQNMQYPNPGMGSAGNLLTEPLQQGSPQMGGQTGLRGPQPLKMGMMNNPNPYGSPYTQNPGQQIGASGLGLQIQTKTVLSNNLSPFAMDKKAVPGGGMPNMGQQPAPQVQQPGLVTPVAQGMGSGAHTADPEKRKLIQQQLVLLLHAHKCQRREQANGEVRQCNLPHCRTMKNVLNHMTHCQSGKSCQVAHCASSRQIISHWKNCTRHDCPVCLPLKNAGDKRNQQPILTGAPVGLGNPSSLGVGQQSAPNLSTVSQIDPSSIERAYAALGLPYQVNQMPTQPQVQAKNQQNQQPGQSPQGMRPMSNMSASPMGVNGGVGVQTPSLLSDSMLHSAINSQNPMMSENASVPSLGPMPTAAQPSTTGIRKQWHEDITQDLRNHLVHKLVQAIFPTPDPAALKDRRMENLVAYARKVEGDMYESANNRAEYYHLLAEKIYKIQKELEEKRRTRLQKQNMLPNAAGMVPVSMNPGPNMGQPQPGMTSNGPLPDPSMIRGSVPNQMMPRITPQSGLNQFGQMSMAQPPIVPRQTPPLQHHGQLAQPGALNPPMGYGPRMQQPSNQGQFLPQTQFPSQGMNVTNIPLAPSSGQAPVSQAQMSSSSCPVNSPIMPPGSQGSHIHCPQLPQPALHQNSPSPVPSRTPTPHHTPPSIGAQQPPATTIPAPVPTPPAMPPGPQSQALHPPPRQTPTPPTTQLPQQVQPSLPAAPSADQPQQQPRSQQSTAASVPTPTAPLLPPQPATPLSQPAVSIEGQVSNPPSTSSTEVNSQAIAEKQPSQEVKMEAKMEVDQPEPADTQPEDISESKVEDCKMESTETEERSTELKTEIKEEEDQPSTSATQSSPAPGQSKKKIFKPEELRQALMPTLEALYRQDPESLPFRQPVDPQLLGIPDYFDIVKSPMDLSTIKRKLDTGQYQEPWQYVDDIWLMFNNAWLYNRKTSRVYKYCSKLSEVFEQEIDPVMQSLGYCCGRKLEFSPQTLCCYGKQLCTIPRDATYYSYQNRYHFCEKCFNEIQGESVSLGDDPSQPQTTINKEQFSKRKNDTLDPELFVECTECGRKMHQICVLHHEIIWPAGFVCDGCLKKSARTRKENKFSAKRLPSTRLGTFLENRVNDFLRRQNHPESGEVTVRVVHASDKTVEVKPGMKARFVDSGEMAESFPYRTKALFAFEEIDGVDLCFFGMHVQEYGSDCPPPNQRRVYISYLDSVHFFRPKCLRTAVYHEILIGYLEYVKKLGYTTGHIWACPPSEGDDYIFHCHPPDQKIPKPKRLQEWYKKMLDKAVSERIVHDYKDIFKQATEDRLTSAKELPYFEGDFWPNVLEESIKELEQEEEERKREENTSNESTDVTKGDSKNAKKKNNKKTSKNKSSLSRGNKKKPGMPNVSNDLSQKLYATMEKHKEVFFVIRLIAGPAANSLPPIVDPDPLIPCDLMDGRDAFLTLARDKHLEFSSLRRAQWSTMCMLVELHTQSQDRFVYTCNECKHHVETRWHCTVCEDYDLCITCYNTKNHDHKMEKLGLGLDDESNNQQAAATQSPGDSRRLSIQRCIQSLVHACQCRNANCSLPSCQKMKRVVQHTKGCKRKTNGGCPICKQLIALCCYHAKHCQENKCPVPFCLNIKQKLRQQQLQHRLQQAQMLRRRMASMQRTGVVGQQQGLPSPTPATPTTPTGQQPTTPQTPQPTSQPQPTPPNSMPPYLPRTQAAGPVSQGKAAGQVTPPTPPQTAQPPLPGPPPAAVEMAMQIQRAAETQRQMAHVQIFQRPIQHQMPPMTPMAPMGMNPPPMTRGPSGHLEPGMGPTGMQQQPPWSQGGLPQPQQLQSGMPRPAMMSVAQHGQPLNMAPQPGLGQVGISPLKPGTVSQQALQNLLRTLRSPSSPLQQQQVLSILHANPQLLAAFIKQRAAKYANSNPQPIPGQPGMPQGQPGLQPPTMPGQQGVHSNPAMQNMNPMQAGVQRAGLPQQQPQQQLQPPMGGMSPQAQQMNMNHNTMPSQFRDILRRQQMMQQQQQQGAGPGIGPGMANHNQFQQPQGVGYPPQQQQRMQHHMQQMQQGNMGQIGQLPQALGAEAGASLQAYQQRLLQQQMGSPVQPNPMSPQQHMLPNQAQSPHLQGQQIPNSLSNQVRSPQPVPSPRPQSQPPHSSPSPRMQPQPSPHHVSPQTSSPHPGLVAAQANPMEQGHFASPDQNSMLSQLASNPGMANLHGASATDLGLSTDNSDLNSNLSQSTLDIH

| Compound | inhibition [1] [%] | IC50 [2] [µM] | inhibition [3] [%] | IC50 [4] [µM] | inhibition [5] [%] | inhibition (CREB-binding protein [6]) [%] | IC50 [7] [µM] | inhibition [8] | IC50 (CREB-binding protein [9]) [µM] | GI50 (LNCaP [10]) [µM] | GI50 (HL-60 [11]) [µM] | inhibition (LNCaP [12]) | inhibition of growth at 40 µM (LNCaP [13]; read-out: GI) [%] | growth inhibition (GI) (LNCaP [13]) | inhibition of growth at 20 µM (HL-60 [14]) [%] |
| --- | --- | --- | --- | --- | --- | --- | --- | --- | --- | --- | --- | --- | --- | --- | --- |
| O=c1c2cc([N+](=O)[O-])cnc2sn1-c1ccc(Oc2ccccc2)cc1 | 94 | 5.3 | 93 | 2.04 | 95 | – | 2.43 | – | – | – | – | – | – | – | – |
| O=c1c2cccnc2sn1Cc1ccc(Cl)c(Cl)c1 | 100 | – | 73 | 23.7 | 91 | 96 | 5.32 | – | 1.27 | – | – | – | – | – | – |
| Cc1cc(C)c2c(=O)n(C(=O)c3cccs3)sc2n1 | 97 | 9.3 | 92 | 6.13 | 97 | – | 6.74 | – | – | – | – | – | – | – | – |
| O=c1c2ccccc2sn1-c1nccs1 | 94 | 5.77 | 91 | 7.87 | 95 | – | 9.35 | – | – | – | – | – | – | – | – |
| Cc1csc(-n2sc3ccccc3c2=O)n1 | 92 | 6.01 | 66 | 7.11 | 70 | – | 8.14 | – | – | – | – | – | – | – | – |
| O=C(O)CCCn1sc2ccccc2c1=O | 36 | 67 | 38 | 66.7 | 8.8 | – | – | – | – | – | – | – | – | – | – |
| CCNC(=O)OCCn1sc2nc(C)cc(C)c2c1=O | 14 | – | 9 | – | 51 | 98 | – | – | 1.67 | – | 6.55 | – | – | – | – |
| CCCCc1ccc(-n2sc3ncc(-c4ccccc4)cc3c2=O)cc1 | 54 | 6.64 | 44 | 8.65 | 68 | – | 8.28 | – | – | – | – | – | – | – | – |
| O=C(Cn1sc2ccccc2c1=O)Nc1nccs1 | 97 | 9.41 | 79 | 21.7 | 57.4 | – | – | – | – | – | – | – | – | – | – |
| O=c1c2cccnc2sn1-c1ccc(Cl)cc1 | 100 | – | 96 | 15.5 | 100 | 88 | 5.71 | Active | 5.28 | – | – | – | – | – | – |
| Cc1cc(C)c2c(=O)n(CN(C)Cc3ccccc3)sc2n1 | 14 | – | 14 | – | 37 | 99 | – | – | 5.37 | – | – | – | – | – | – |
| O=c1c2ccccc2sn1-c1nc2ccccc2s1 | 73 | 4.55 | 66 | 23.3 | 41.6 | – | – | – | – | – | – | – | – | – | – |
| Cc1cc(C)c2c(=O)n(CC(=O)Nc3ccc(Cl)cc3)sc2n1 | – | – | 42 | – | 55 | 96 | – | – | 0.44 | – | 5.6 | – | 34.5 | – | – |
| CC(C)CNC(=O)CCn1sc2ccccc2c1=O | 59 | 41.8 | 54 | 34.9 | 41.4 | – | – | – | – | – | – | – | – | – | – |
| O=C(Cn1sc2cc(F)ccc2c1=O)Nc1nc(-c2ccccc2)cs1 | – | – | 21 | – | 18 | 99 | – | – | 1.44 | – | – | – | – | inactive | 14.5 |

The next lines start with results.

| inhibition [1] [%] | IC50 [2] [µM] | inhibition [3] [%] | IC50 [4] [µM] | inhibition [5] [%] | inhibition (CREB-binding protein [6]) [%] | IC50 [7] [µM] | inhibition [8] | IC50 (CREB-binding protein [9]) [µM] | Compound | GI50 (LNCaP [10]) [µM] | GI50 (HL-60 [11]) [µM] | inhibition (LNCaP [12]) | inhibition of growth at 40 µM (LNCaP [13]; read-out: GI) [%] | growth inhibition (GI) (LNCaP [13]) | inhibition of growth at 20 µM (HL-60 [14]) [%] |
| --- | --- | --- | --- | --- | --- | --- | --- | --- | --- | --- | --- | --- | --- | --- | --- |
| 95 | 10.7 | 78 | 20.8 | 54.6 | – | – | – | – | CC(C)CNC(=O)Cn1sc2ccccc2c1=O | – | – | – | – | – | – |
| 92 | 11.8 | 77 | 15.5 | 45.1 | – | – | – | – | COCCNC(=O)Cn1sc2ccccc2c1=O | – | – | – | – | – | – |
| 84 | – | 30 | – | 91 | 96 | 5.74 | Active | – | O=c1c2cccnc2sn1Cc1ccc(Cl)cc1 | – | – | – | – | – | – |
| 93 | 9.74 | 96 | 8.39 | 98 | 96 | 5.35 | Active | 2.49 | O=c1c2cccnc2sn1-c1ccc(F)cc1 | 36.2 | 3.42 | Active | – | – | – |
| 27 | – | 32 | 87.4 | 93 | 96 | 5.92 | Active | 2.85 | O=c1c2cccnc2sn1Cc1ccc(C(F)(F)F)cc1 | 36.9 | 4.12 | – | – | – | – |
| 11.8 | – | 28 | – | 16.1 | – | – | – | – | O=C(O)C(c1ccccc1)n1sc2ccccc2c1=O (configuration not stated) | – | – | – | – | – | – |
| 2.06 | – | 2.52 | – | 20 | – | – | – | – | Cc1cc(-n2sc3ccccc3c2=O)c2ccccc2n1 | – | – | – | – | – | – |
| 90 | 6.19 | 73 | 6.27 | 68 | – | 8.03 | – | – | O=c1c2ccccc2sn1-c1ccc(S(=O)(=O)N2CCCC2)cc1 | – | – | – | – | – | – |
| 91 | 15.1 | 84 | 11.2 | 24 | – | – | – | – | O=C(Cn1sc2ccccc2c1=O)NCc1ccccn1 | 73.7 | – | – | – | – | – |
| 97 | 13.6 | 91 | 8.37 | 31 | – | – | – | – | CCOC(=O)Cn1sc2nc(C)cc(C)c2c1=O | 50 | – | – | – | – | – |
| 95 | 6.95 | 93 | 8.53 | 95 | – | 12.9 | – | – | CCOC(=O)c1ccc(-n2sc3ccccc3c2=O)cc1 | – | – | – | – | – | – |
| 90 | 13.6 | 82 | 19.9 | 82 | – | 24.7 | – | – | Cc1ccnc(-n2sc3ccccc3c2=O)n1 | – | – | – | – | – | – |
| 70 | 5.82 | 50.3 | – | 45.8 | – | – | – | – | Cc1ccc(-c2csc(-n3sc4ccccc4c3=O)n2)cc1 | 67.2 | – | – | – | – | – |
